Measurements published in ChEMBL document CHEMBL5537181 (J Med Chem, 2024).
Activity calls are given as the source filed them.

What was measured:
Type in all cases: functional, organism-based
Rattus norvegicus [1] = assay: Analgesic activity in Chronic constriction injury rat model assessed as increase in paw withdrawal threshold at 5 mg/kg,IM administration and measured for 0.5 to 48 hrs; details: time 0.5-48 hrs
Rattus norvegicus [2] = assay: Analgesic activity in Chronic constriction injury rat model assessed as increase in paw withdrawal latency at 5 mg/kg,IM administration and measured for 0.5 to 48 hrs; details: time 0.5-48 hrs
Rattus norvegicus [3] = assay: Antinociceptive activity in Chronic constriction injury rat model assessed as reduction in pain at 5 mg/kg,IM administration and measured after 2 hrs
Rattus norvegicus [4] = assay: Antinociceptive activity in Chronic constriction injury rat model assessed as reduction in pain at 5 mg/kg,IM administration and measured after 12 hrs
Rattus norvegicus [5] = assay: Analgesic activity in Chronic constriction injury rat model assessed as increase in paw withdrawal threshold at 30 mg/kg,po administration and measured for 0.5 to 48 hrs; details: time 0.5-48 hrs
Rattus norvegicus [6] = assay: Analgesic activity in Chronic constriction injury rat model assessed as increase in paw withdrawal latency at 30 mg/kg,po administration and measured for 0.5 to 48 hrs; details: time 0.5-48 hrs

Measured: Activity

CN1CC[C@]23c4c5ccc(O)c4O[C@H]2[C@@H](O)C=C[C@H]3[C@H]1C5
active: Rattus norvegicus [1] | Rattus norvegicus [2] | Rattus norvegicus [3] | Rattus norvegicus [4]

CC(C)C[C@H](CN)CC(=O)O
active: Rattus norvegicus [5] | Rattus norvegicus [6]
